For assay [1], the system named is Ba/F3 cells (IL-3 dependent murine pro-B cell line). Kind of assay: Proliferation assay (MTT), parental Ba/F3 cells. It is filed as cell-based. The conditions noted are these: Mus musculus, 48 h, drug concentrations 0.005-10 μM, read-out: BaF3. Summed up: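 Parental Ba/F3 cells grown with 10 U/ml murine IL-3 in RPMI/10% FBS, plated at 0.3-0.6×10^6/ml with compound at 0.005-10 μM for 48 h, 37 °C. Viability by MTT reduction; IC50 from percent growth relative to DMSO controls.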

Assay [2] deals with Bcr-abl (Ba/F3.p210 cells) (Homo sapiens, UniProt P00519). Kind of assay: Proliferation assay (MTT), wild type Bcr-abl expressing Ba/F3 cells. It is filed as cell-based, murine. The conditions noted are these: 48 h, drug concentrations 0.005-10 μM. The source says:
(§1) Wild type Bcr-abl expressing 32D (32D.p210) and Ba/F3 (Ba/F3.p210) cells, and mutant Bcr-abl expressing cell lines Ba/F3.p210^G250E, Ba/F3.p210^E255V, Ba/F3.p210^T315I, Ba/F3.p210^F317L and Ba/F3.p210^M351T, as well as Ba/F3 cells transformed with Flt-3-ITD kinase. Additional assays included Ba/F3 cells expressing the fusion protein kinases TEL-PDGFRβ, TEL-JAK1, NPM-ALK, TEL-cKit, Tel-Bmx, Tel-FGR3, Tel-Lck and Ba/F3.TPR-met cells. All the above cell lines were maintained in RPMI-1640 medium with L-Glutamine, 10% FBS and 1 mg/ml geneticin (Gibco).
(§2) Cells (0.3-0.6×10^6/ml) were plated in duplicate or triplicate in 96-well plates containing increasing drug concentrations (0.005-10 μM). After incubation at 37° C. in 5% CO2 for 48 h, the effect of the compounds on cell viability was determined by MTT (Promega) colorimetric dye reduction method. Inhibition of cell proliferation was calculated as a percentage of growth of DMSO treated cells, and IC50 values were determined with Microsoft Excel XLfit3.

Assay [3] addresses Bcr-abl T315I (Ba/F3.p210^T315I cells) (Homo sapiens, UniProt P00519, T315I, cells depend on it). Kind of assay: Proliferation assay (MTT), T315I mutant Bcr-abl expressing Ba/F3 cells. The class given is cell-based, murine. The conditions noted are these: 48 h, drug concentrations 0.005-10 μM.
Source text: as §1, §2

With `CN1CCC(N(C)C(=O)c2ccc3c(Nc4ccc(OC(F)(F)F)cc4)ncnc3c2)CC1`, the IC50 in assay [1] is 5.99 µM; in assay [2] it was 0.689 µM; in assay [3] it was 5 µM.

(Values after patent US9670214B2, “Small molecule myristate inhibitors of Bcr-abl and methods of use” (DANA-FARBER CANCER INSTITUTE, INC., priority 2007, dated 2017).)
